# Data as given in patent US10329295B2, “Pyrrolotriazine inhibitors of IRAK4 activity” (MERCK SHARP & DOHME CORP., priority 2015, dated 2019).
# Counter-ions that a name gives are not always drawn.
# Biological target: GST tagged IRAK4 (Homo sapiens (Human), UniProt Q9NWZ3)
# Test: IRAK4 Kinase Assay (IMAP fluorescence polarization)
# Type: biochemical
# Details: 0.5 nM GST tagged IRAK4, 100 μM ATP, 30 minutes at 25° C.
# In short: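 Phosphorylation of a fluorescent peptide (100 nM) was detected by IMAP nanoparticle binding as increased fluorescence polarization. The enzyme was GST-tagged IRAK4 at 0.5 nM, with 100 μM ATP, 1 mM MgCl2 and Tris-HCl pH 7.2. ATP-initiated reactions ran 30 minutes at 25° C.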
# Sequence of GST tagged IRAK4 (Q9NWZ3 whole entry): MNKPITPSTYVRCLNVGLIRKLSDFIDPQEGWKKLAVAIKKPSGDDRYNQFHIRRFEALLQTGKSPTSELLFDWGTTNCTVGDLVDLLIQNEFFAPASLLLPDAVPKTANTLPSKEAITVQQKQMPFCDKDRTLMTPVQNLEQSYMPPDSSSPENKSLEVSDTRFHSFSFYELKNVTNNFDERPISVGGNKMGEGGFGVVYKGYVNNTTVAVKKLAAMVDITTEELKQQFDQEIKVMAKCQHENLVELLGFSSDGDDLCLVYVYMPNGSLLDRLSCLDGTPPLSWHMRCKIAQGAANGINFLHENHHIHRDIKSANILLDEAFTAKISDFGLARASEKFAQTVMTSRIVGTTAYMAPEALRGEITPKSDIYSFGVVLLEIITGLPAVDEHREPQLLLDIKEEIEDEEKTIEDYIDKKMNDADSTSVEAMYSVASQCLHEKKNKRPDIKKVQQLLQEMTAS
row,SMILES,IC50 [nM]
1,"Cn1cc(NC(=O)c2ccc3cnc(N[C@@H]4CCCNC4)nn23)c(C(F)F)n1 [Example 16, N-[3-(difluoromethyl)-1-methyl-1H-pyrazol-4-yl]-2-[(3R)-piperidin-3-ylamino]pyrrolo[2,1-f][1,2,4]triazine-7-carboxamide trifluoroacetate]",1
2,"Cn1cc(NC(=O)c2ccc3cnc(N[C@@H]4CCCC[C@@H]4O)nn23)c(C(F)F)n1 [Example 17, N-[3-(difluoromethyl)-1-methyl-1H-pyrazol-4-yl]-2-{[(1R,2S)-2-hydroxycyclohexyl]amino}-pyrrolo[2,1-f][1,2,4]triazine-7-carboxamide trifluoroacetate]",4
3,"Cn1cc(NC(=O)c2ccc3cnc(N4CCC[C@@H](N)C4)nn23)c(C(F)F)n1 [Example 18, 2-[(3R)-3-aminopiperidin-1-yl]-N-[3-(difluoromethyl)-1-methyl-1H-pyrazol-4-yl]pyrrolo[2,1-f][1,2,4]triazine-7-carboxamide trifluoroacetate]",0.5
4,"Cn1cc(NC(=O)c2ccc3cnc(NC4CCCCNC4)nn23)c(C(F)F)n1 (stereo not drawn) [Example 19, 2-(azepan-3-ylamino)-N-[3-(difluoromethyl)-1-methyl-1H-pyrazol-4-yl]pyrrolo[2,1-f][1,2,4]triazine-7-carboxamide trifluoroacetate]",1
5,"Cn1cc(NC(=O)c2ccc3cnc(N4CCNCC5(CC5)C4)nn23)c(C(F)F)n1 [Example 20, 2-(5,8-diazaspiro[2.6]non-5-yl)-N-[3-(difluoromethyl)-1-methyl-1H-pyrazol-4-yl]pyrrolo[2,1-f][1,2,4]triazine-7-carboxamide trifluoroacetate]",2
6,"N#Cc1sccc1NC(=O)c1ccc2cnc(N[C@@H]3CCCC[C@@H]3N)nn12 [Example 21, 2-{[(1R,2S)-2-aminocyclohexyl]amino}-N-(2-cyanothiophen-3-yl)pyrrolo[2,1-f][1,2,4]triazine-7-carboxamide trifluoroacetate]",1
7,"N#Cc1sccc1NC(=O)c1ccc2cnc(N3CC4CCC3CN4)nn12 (stereo not drawn) [Example 22, N-(2-cyanothiophen-3-yl)-2-(2,5-diazabicyclo[2.2.2]oct-2-yl)pyrrolo[2,1-f][1,2,4]triazine-7-carboxamide trifluoroacetate]",399
8,"O=C(Nc1cscc1Br)c1ccc2cnc(N3CCCNCC3)nn12 [Example 23, N-(4-bromothiophen-3-yl)-2-(1,4-diazepan-1-yl)pyrrolo[2,1-f][1,2,4]triazine-7-carboxamide trifluoroacetate]",1680
9,"O=C(Nc1cscc1Br)c1ccc2cnc(N3CC4CCC3CN4)nn12 (stereo not drawn) [Example 24, N-(4-bromothiophen-3-yl)-2-(2,5-diazabicyclo[2.2.2]oct-2-yl)pyrrolo[2,1-f][1,2,4]triazine-7-carboxamide trifluoroacetate]",680
10,"Cn1cc(NC(=O)c2ccc3cnc(N[C@@H]4CCCC[C@@H]4N)nn23)c(Cl)n1 [Example 25, 2-{[(1R,2S)-2-aminocyclohexyl]amino}-N-(3-chloro-1-methyl-1H-pyrazol-4-yl)pyrrolo[2,1-f][1,2,4]triazine-7-carboxamide trifluoroacetate]",1
11,"Cn1cc(NC(=O)c2ccc3cnc(N4CCCNCC4)nn23)c(Cl)n1 [Example 26, N-(3-chloro-1-methyl-1H-pyrazol-4-yl)-2-(1,4-diazepan-1-yl)pyrrolo[2,1-f][1,2,4]triazine-7-carboxamide trifluoroacetate]",61
12,"N[C@H]1CCCC[C@H]1Nc1ncc2ccc(C(=O)Nc3ccccc3C(F)(F)F)n2n1 [Example 27, 2-{[(1R,2S)-2-aminocyclohexyl]amino}-N-[2-(trifluoromethyl)phenyl]-pyrrolo[2,1-f][1,2,4]triazine-7-carboxamide trifluoroacetate]",392
13,"O=C(Nc1ccccc1C(F)(F)F)c1ccc2cnc(N3CCCNCC3)nn12 [Example 28, 2-(1,4-diazepan-1-yl)-N-[2-(trifluoromethyl)phenyl]-pyrrolo[2,1-f][1,2,4]triazine-7-carboxamide trifluoroacetate]",3980
14,"Cn1cc(NC(=O)c2ccc3cnc(N4CC5CCC4CN5)nn23)c(C(F)F)n1 (stereo not drawn) [Example 29, 2-(2,5-diazabicyclo[2.2.2]oct-2-yl)-N-[3-(difluoromethyl)-1-methyl-1H-pyrazol-4-yl]pyrrolo[2,1-f][1,2,4]triazine-7-carboxamide trifluoroacetate]",7

# Continued, values first:
row,IC50 [nM],SMILES
1,3,"N[C@H]1CCCC[C@H]1Nc1ncc2ccc(C(=O)Nc3ccsc3Cl)n2n1 [Example 30, 2-{[(1R,2S)-2-aminocyclohexyl]amino}-N-(2-chlorothiophen-3-yl)pyrrolo[2,1-f][1,2,4]triazine-7-carboxamide trifluoroacetate]"
2,866,"O=C(Nc1ccsc1Cl)c1ccc2cnc(N3CCCNCC3)nn12 [Example 31, N-(2-chlorothiophen-3-yl)-2-(1,4-diazepan-1-yl)pyrrolo[2,1-f][1,2,4]triazine-7-carboxamide trifluoroacetate]"
3,11,"N[C@H]1CCCC[C@H]1Nc1ncc2ccc(C(=O)Nc3ccccc3Br)n2n1 [Example 32, 2-{[(1R,2S)-2-aminocyclohexyl]amino}-N-(2-bromophenyl)pyrrolo[2,1-f][1,2,4]triazine-7-carboxamide trifluoroacetate]"
4,5350,"O=C(Nc1ccccc1Br)c1ccc2cnc(N3CCCNCC3)nn12 [Example 33, N-(2-bromophenyl)-2-(1,4-diazepan-1-yl)pyrrolo[2,1-f][1,2,4]triazine-7-carboxamide trifluoroacetate]"
5,352,"Cn1cc(NC(=O)c2ccc3cnc(N4CCCNCC4)nn23)c(C#N)n1 [Example 34, N-(3-cyano-1-methyl-1H-pyrazol-4-yl)-2-(1,4-diazepan-1-yl)pyrrolo[2,1-f][1,2,4]triazine-7-carboxamide trifluoroacetate]"
6,1,"Cn1cc(NC(=O)c2ccc3cnc(N[C@@H]4CCCC[C@@H]4N)nn23)c(C#N)n1 [Example 35, 2-{[(1R,2S)-2-aminocyclohexyl]amino}-N-(3-cyano-1-methyl-1H-pyrazol-4-yl)pyrrolo[2,1-f][1,2,4]triazine-7-carboxamide trifluoroacetate]"
7,426,"N#Cc1cscc1NC(=O)c1ccc2cnc(N3CC4CCC3CN4)nn12 (stereo not drawn) [Example 36, N-(4-cyanothiophen-3-yl)-2-(2,5-diazabicyclo[2.2.2]oct-2-yl)pyrrolo[2,1-f][1,2,4]triazine-7-carboxamide trifluoroacetate]"
8,1670,"O=C(Nc1ccsc1Br)c1ccc2cnc(N3CCCNCC3)nn12 [Example 37, N-(2-bromothiophen-3-yl)-2-(1,4-diazepan-1-yl)pyrrolo[2,1-f][1,2,4]triazine-7-carboxamide trifluoroacetate]"
9,7,"N[C@H]1CCCC[C@H]1Nc1ncc2ccc(C(=O)Nc3ccsc3Br)n2n1 [Example 38, 2-{[(1R,2S)-2-aminocyclohexyl]amino}-N-(2-bromothiophen-3-yl)pyrrolo[2,1-f][1,2,4]triazine-7-carboxamide trifluoroacetate]"
10,228,"O=C(Nc1ccccc1Cl)c1ccc2cnc(N3CCCNCC3)nn12 [Example 39, N-(2-chlorophenyl)-2-(1,4-diazepan-1-yl)pyrrolo[2,1-f][1,2,4]triazine-7-carboxamide trifluoroacetate]"
11,3,"N[C@H]1CCCC[C@H]1Nc1ncc2ccc(C(=O)Nc3ccccc3Cl)n2n1 [Example 40, 2-{[(1R,2S)-2-aminocyclohexyl]amino}-N-(2-chlorophenyl)pyrrolo[2,1-f][1,2,4]triazine-7-carboxamide trifluoroacetate]"
12,88,"O=C(Nc1cscc1C(F)F)c1ccc2cnc(N3CCCNCC3)nn12 [Example 41, 2-(1,4-diazepan-1-yl)-N-[4-(difluoromethyl)thiophen-3-yl]pyrrolo[2,1-f][1,2,4]triazine-7-carboxamide trifluoroacetate]"
13,4,"N[C@H]1CCCC[C@H]1Nc1ncc2ccc(C(=O)Nc3cscc3C(F)F)n2n1 [Example 42, 2-{[(1R,2S)-2-aminocyclohexyl]amino}-N-[4-(difluoromethyl)thiophen-3-yl]pyrrolo[2,1-f][1,2,4]triazine-7-carboxamide trifluoroacetate]"
14,1040,"N#Cc1sccc1NC(=O)c1ccc2cnc(N3CCCNCC3)nn12 [Example 43, N-(2-cyanothiophen-3-yl)-2-(1,4-diazepan-1-yl)pyrrolo[2,1-f][1,2,4]triazine-7-carboxamide trifluoroacetate]"
15,11,"N#Cc1ccccc1NC(=O)c1ccc2cnc(N[C@@H]3CCCC[C@@H]3N)nn12 [Example 50, 2-{[(1R,2S)-2-aminocyclohexyl]amino}-N-(2-cyanophenyl)pyrrolo[2,1-f][1,2,4]triazine-7-carboxamide trifluoroacetate]"
16,157,"N#Cc1ccccc1NC(=O)c1ccc2cnc(N3CCC[C@@H](N)C3)nn12 [Example 51, 2-[(3R)-3-aminopiperidin-1-yl]-N-(2-cyanophenyl)pyrrolo[2,1-f][1,2,4]triazine-7-carboxamide trifluoroacetate]"
17,26,"N#Cc1ccccc1NC(=O)c1ccc2cnc(N[C@@H]3CCCNC3)nn12 [Example 52, N-(2-cyanophenyl)-2-[(3R)-piperidin-3-ylamino]pyrrolo[2,1-f][1,2,4]triazine-7-carboxamide trifluoroacetate]"
18,88,"N[C@H]1CCCC[C@H]1Nc1ncc2ccc(C(=O)Nc3ccccc3C(F)F)n2n1 [Example 56, 2-{[(1R,2S)-2-aminocyclohexyl]amino}-N-[2-(difluoromethyl)phenyl]-pyrrolo[2,1-f][1,2,4]triazine-7-carboxamide trifluoroacetate]"
19,6560,"O=C(Nc1ccccc1C(F)F)c1ccc2cnc(N3CCCNCC3)nn12 [Example 57, 2-(1,4-diazepan-1-yl)-N-[2-(difluoromethyl)phenyl]-pyrrolo[2,1-f][1,2,4]triazine-7-carboxamide trifluoroacetate]"
